Results: PubChem BioAssay (NCI)
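Each compound was tested at five concentrations against cells in 96-well plates for 48 hours. TGI denotes the concentration required for complete inhibition of growth.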

How the values were obtained:
Experiment in all cases: inhibition of tumour cell growth, NCI panel, 48 h
HCT-116 colon = test system: HCT-116 colon
SNB-19 CNS = test system: SNB-19 CNS
SF-539 CNS = test system: SF-539 CNS
BT-549 breast = test system: BT-549 breast
RXF 393 renal = test system: RXF 393 renal
HOP-92 NSCLC = test system: HOP-92 NSCLC
MALME-3M melanoma = test system: MALME-3M melanoma
TK-10 renal = test system: TK-10 renal
NCI-H522 lung = test system: NCI-H522 lung
MDA-N = test system: MDA-N
U251 CNS = test system: U251 CNS
SW-620 colon = test system: SW-620 colon
HS 578T breast = test system: HS 578T breast
HCT-15 colon = test system: HCT-15 colon
NCI-H226 lung = test system: NCI-H226 lung
KM12 colon = test system: KM12 colon
MOLT-4 leukemia = test system: MOLT-4 leukemia
DU-145 prostate = test system: DU-145 prostate
RPMI-8226 leukemia = test system: RPMI-8226 leukemia
OVCAR-3 ovarian = test system: OVCAR-3 ovarian
UACC-257 melanoma = test system: UACC-257 melanoma
NCI-H23 lung = test system: NCI-H23 lung
786-0 renal = test system: 786-0 renal
NCI/ADR-RES ovarian = test system: NCI/ADR-RES ovarian
M14 melanoma = test system: M14 melanoma
MDA-MB-231 breast = test system: MDA-MB-231 breast
CAKI-1 renal = test system: CAKI-1 renal
SR leukemia = test system: SR leukemia
OVCAR-4 ovarian = test system: OVCAR-4 ovarian
MCF7 breast = test system: MCF7 breast
OVCAR-5 ovarian = test system: OVCAR-5 ovarian
A498 renal = test system: A498 renal
COLO 205 colon = test system: COLO 205 colon
EKVX NSCLC = test system: EKVX NSCLC
HOP-62 NSCLC = test system: HOP-62 NSCLC
UACC-62 melanoma = test system: UACC-62 melanoma
HL-60(TB) leukemia = test system: HL-60(TB) leukemia
SK-MEL-5 melanoma = test system: SK-MEL-5 melanoma
SF-295 CNS = test system: SF-295 CNS
T-47D breast = test system: T-47D breast
PC-3 prostate = test system: PC-3 prostate
OVCAR-8 ovarian = test system: OVCAR-8 ovarian
K-562 leukemia = test system: K-562 leukemia
HT29 colon = test system: HT29 colon
SN12C renal = test system: SN12C renal
IGROV1 ovarian = test system: IGROV1 ovarian
LOX IMVI melanoma = test system: LOX IMVI melanoma
A549 NSCLC = test system: A549 NSCLC
SK-MEL-2 melanoma = test system: SK-MEL-2 melanoma
SK-OV-3 ovarian = test system: SK-OV-3 ovarian
HCC-2998 colon = test system: HCC-2998 colon
SK-MEL-28 melanoma = test system: SK-MEL-28 melanoma
CCRF-CEM leukemia = test system: CCRF-CEM leukemia
SF-268 CNS = test system: SF-268 CNS
ACHN renal = test system: ACHN renal
MDA-MB-435 = test system: MDA-MB-435
NCI-H460 lung = test system: NCI-H460 lung
SNB-75 CNS = test system: SNB-75 CNS

CSC1(C)C(=O)Nc2c(OCc3ccccc3)cc([N+](=O)[O-])cc21 (stereo not drawn)
TGI (HCT-116 colon): > 100 µM | TGI (SNB-19 CNS): > 100 µM | TGI (SF-539 CNS): > 100 µM | TGI (BT-549 breast): > 100 µM | TGI (RXF 393 renal): > 100 µM | TGI (HOP-92 NSCLC): > 100 µM | TGI (MALME-3M melanoma): > 100 µM | TGI (TK-10 renal): > 100 µM | TGI (NCI-H522 lung): > 100 µM | TGI (MDA-N): > 100 µM | TGI (U251 CNS): 37.3 µM | TGI (SW-620 colon): > 100 µM | TGI (HS 578T breast): 32.6 µM | TGI (HCT-15 colon): > 100 µM | TGI (NCI-H226 lung): 31 µM | TGI (KM12 colon): > 100 µM | TGI (MOLT-4 leukemia): > 100 µM | TGI (DU-145 prostate): > 100 µM | TGI (RPMI-8226 leukemia): > 100 µM | TGI (OVCAR-3 ovarian): > 100 µM | TGI (UACC-257 melanoma): > 100 µM | TGI (NCI-H23 lung): > 100 µM | TGI (786-0 renal): 31 µM | TGI (NCI/ADR-RES ovarian): > 100 µM | TGI (M14 melanoma): > 100 µM | TGI (MDA-MB-231 breast): > 100 µM | TGI (CAKI-1 renal): > 100 µM | TGI (SR leukemia): > 100 µM | TGI (OVCAR-4 ovarian): > 100 µM | TGI (MCF7 breast): 44.1 µM | TGI (OVCAR-5 ovarian): > 100 µM | TGI (A498 renal): > 100 µM | TGI (COLO 205 colon): > 100 µM | TGI (EKVX NSCLC): > 100 µM | TGI (HOP-62 NSCLC): > 100 µM | TGI (UACC-62 melanoma): > 100 µM | TGI (HL-60(TB) leukemia): > 100 µM | TGI (SK-MEL-5 melanoma): > 100 µM | TGI (SF-295 CNS): > 100 µM | TGI (T-47D breast): > 100 µM | TGI (PC-3 prostate): > 100 µM | TGI (OVCAR-8 ovarian): 55.1 µM | TGI (K-562 leukemia): > 100 µM | TGI (HT29 colon): > 100 µM | TGI (SN12C renal): 34.6 µM | TGI (IGROV1 ovarian): > 100 µM | TGI (LOX IMVI melanoma): > 100 µM | TGI (A549 NSCLC): > 100 µM | TGI (SK-MEL-2 melanoma): > 100 µM | TGI (SK-OV-3 ovarian): > 100 µM | TGI (HCC-2998 colon): > 100 µM | TGI (SK-MEL-28 melanoma): > 100 µM | TGI (CCRF-CEM leukemia): > 100 µM | TGI (SF-268 CNS): > 100 µM | TGI (ACHN renal): > 100 µM | TGI (MDA-MB-435): > 100 µM | TGI (NCI-H460 lung): > 100 µM | TGI (SNB-75 CNS): 35.7 µM
